Test results as given in patent EP4703358A1, “BENZO SIX-MEMBERED HETEROCYCLIC GSPT1 PROTEIN DEGRADATION AGENT AND USE THEREOF” (China Pharmaceutical University, priority 2023, dated 2024).

Columns and labels:
[1] = tested on: MV4-11; test: Antiproliferative activity against tumor cells (CCK8), MV4-11; assay type: cell-based; conditions: Homo sapiens, MV4-11 cells, 72 hours
Protocol: (§1) U937, MOLM-13, and MV4-11 cells (ATCC) in the logarithmic growth phase were separately diluted in a culture medium and plated onto 96-well plates at 5000 cells/well, and the plates were incubated in an incubator at 37 °C with 5% CO2 for 24 hours. 10 mM stock solutions of the compounds in DMSO were prepared and diluted with the culture medium to set 9 concentration gradients. Three replicate wells were set for each concentration. After compound addition, the plates were incubated in an incubator at 37 °C with 5% CO2 for 72 hours. The cell proliferation was assessed using the CCK8 method. The cell growth inhibition IC50 values of the compounds were determined using an enzyme labeling method. The IC50 values were calculated using GraphPad Prism 7 software.
(§2) The antiproliferative activity of the compounds against the tumor cells is shown in Table 3, where A represents IC50 < 1 nM, B represents 1 ≤ IC50 < 10 nM, C represents 10 nM ≤ IC50 < 100 nM, D represents 100 nM ≤ IC50 < 1000 nM, and E represents IC50 ≥ 1000 nM. Table 3. The antiproliferative activity of compounds against tumor cells

[2] = tested on: KG-1 cells; test: Antiproliferative activity against KG-1 cells (CCK8); assay type: cell-based; conditions: Homo sapiens, 72 hours
Protocol: KG-1 cells in the logarithmic growth phase were diluted in a culture medium (RPMI + 10% FBS) and plated onto 96-well plates at 5000 cells/well, and the plates were incubated in an incubator at 37 °C with 5% CO2 for 24 hours. 10 mM stock solutions of the test compounds of the present disclosure in DMSO were prepared and diluted with the culture medium to set 9 concentration gradients. Three replicate wells were set for each concentration. After compound addition, the plates were incubated in an incubator at 37 °C with 5% CO2 for 72 hours. The cell proliferation was assessed using the CCK8 method. The cell growth inhibition IC50 values of the compounds were determined using an enzyme labeling method. The IC50 values were calculated using GraphPad Prism 7 software.
as §2, with “KG-1” for “the tumor”, “2,” for “3,”, “2.” for “3.”, “KG-1” for “tumor”

[3] = tested on: U937; test: Antiproliferative activity against tumor cells (CCK8), U937; assay type: cell-based; conditions: Homo sapiens, U-937, 72 hours
Protocol: as §1, §2

[4] = target: T1, GSPT1 protein (Homo sapiens, UniProt P15170+Q96SW2); test: Degradation of GSPT1 in KG-1 cells (Western blot); assay type: cell-based; conditions: KG-1 cells, compound concentration 200 nM, 4 hours
T1 construct: host or cells: KG-1 cells
T1 sequence (P15170 whole entry): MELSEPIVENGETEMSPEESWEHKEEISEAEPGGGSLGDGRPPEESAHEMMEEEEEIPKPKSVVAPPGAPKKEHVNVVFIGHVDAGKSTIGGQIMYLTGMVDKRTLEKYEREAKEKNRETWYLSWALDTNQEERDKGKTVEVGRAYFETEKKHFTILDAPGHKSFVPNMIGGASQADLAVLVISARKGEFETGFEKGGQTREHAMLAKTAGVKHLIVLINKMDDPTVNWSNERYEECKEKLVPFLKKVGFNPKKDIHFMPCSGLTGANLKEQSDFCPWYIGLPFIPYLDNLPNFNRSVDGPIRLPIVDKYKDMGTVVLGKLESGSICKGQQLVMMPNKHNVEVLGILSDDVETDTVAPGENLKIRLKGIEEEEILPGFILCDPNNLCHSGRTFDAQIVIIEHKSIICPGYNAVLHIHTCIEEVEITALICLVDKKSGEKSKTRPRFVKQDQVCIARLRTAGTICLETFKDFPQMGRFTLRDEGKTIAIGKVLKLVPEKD
T1 sequence (Q96SW2 whole entry): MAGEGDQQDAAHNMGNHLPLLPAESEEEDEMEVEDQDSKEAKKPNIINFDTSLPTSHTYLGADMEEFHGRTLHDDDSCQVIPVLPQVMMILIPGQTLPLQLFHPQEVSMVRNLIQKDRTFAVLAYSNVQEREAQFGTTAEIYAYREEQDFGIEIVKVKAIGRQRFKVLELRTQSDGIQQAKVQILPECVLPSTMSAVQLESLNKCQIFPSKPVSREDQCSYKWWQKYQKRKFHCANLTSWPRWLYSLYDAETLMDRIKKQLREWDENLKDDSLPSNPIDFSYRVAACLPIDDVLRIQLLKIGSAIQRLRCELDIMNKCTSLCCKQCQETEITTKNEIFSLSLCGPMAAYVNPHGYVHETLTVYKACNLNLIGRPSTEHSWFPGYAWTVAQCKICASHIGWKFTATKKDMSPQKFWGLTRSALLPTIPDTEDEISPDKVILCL
T1 sequence (Q16531 whole entry partner): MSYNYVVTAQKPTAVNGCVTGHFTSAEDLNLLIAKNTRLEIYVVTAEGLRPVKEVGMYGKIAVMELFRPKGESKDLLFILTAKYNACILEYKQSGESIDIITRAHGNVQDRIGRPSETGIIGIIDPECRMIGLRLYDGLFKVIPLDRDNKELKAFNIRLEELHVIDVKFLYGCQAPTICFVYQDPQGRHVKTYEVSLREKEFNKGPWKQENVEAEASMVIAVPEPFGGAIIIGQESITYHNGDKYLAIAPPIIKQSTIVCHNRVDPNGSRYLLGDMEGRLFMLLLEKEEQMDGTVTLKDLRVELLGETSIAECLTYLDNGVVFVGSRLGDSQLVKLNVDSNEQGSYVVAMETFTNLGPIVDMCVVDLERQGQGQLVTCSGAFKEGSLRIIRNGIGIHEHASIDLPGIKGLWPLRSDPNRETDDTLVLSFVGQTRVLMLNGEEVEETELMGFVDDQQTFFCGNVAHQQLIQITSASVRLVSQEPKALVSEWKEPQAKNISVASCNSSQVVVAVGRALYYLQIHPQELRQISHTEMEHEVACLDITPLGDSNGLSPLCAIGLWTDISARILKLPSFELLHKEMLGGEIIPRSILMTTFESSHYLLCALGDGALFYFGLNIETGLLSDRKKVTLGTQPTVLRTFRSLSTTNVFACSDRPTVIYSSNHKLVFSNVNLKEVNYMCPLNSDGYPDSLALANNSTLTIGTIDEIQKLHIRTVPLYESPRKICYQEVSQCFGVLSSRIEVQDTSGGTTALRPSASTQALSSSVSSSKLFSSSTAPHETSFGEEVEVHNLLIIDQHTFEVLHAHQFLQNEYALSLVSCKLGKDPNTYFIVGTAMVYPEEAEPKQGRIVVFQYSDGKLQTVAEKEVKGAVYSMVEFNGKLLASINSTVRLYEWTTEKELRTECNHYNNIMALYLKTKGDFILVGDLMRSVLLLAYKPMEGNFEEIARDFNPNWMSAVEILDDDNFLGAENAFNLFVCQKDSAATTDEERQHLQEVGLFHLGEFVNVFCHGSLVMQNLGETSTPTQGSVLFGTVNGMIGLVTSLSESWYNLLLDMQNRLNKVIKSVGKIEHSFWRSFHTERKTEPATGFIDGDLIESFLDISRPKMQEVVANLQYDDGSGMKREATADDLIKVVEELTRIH
Protocol: KG-1 cells (ATCC) were grown in an IMDM culture medium (containing 20% FBS). After centrifugation and counting, the cell concentration was adjusted. The cells were plated onto 6-well plates at 10^6 cells/well, with 1350 µL per well. 150 µL of DMSO and the test compounds of the present disclosure (compound concentration: 200 nM) were added. The plates were incubated in an incubator at 37 °C with 5% CO2 for 4 hours. The cells were centrifuged, and the culture medium was discarded. PBS was added to wash the cells and then discarded. Whole cell lysates were prepared using a protease inhibitor cocktail (100×, Fude Biological), a protein phosphatase inhibitor cocktail (100×, Fude Biological), SuperNuclease (Beyotime), and a high-intensity RIPA lysis buffer (Thermo Fisher) and placed on ice for 30 minutes. After centrifugation, the cell debris precipitates were discarded, and the whole cell lysate supernatants were collected and transferred to new centrifuge tubes. After a BCA protein assay, samples were prepared using a 5× loading buffer (Thermo Fisher). The samples were subjected to protein electrophoresis separation in a 4-20% precast gel (SDS-PAGE gel), transferred to a PVDF membrane, then blocked with 5% NFDM/TBST at room temperature for 1 hour, incubated overnight with primary antibodies at 4 °C, and incubated with a secondary antibody at room temperature for 2 hours the next day. Signals were detected using a MINICHEMITM imaging system.
Primary antibodies: • Anti-GSPT1: Abcam ab234433 • Anti-beta actin: Fude Biological FD0060
Secondary antibody: Anti-rabbit peroxidase-linked secondary antibody: Fude Biological FDG007
The degradation effects of the compounds on GSPT1 protein are shown in Table 1, where A represents a GSPT1 protein degradation percentage of no less than 80%, B represents a degradation percentage of less than 80% but no less than 50%, C represents a degradation percentage of less than 50% but no less than 25%, and D represents a degradation percentage of less than 25%. Table 1. The degradation of GSPT1 protein by compounds

[5] = tested on: MOLM-13; test: Antiproliferative activity against tumor cells (CCK8), MOLM-13; assay type: cell-based; conditions: Homo sapiens, MOLM-13 cells, 72 hours
Protocol: as §1, §2

[6] = Metabolic stability in in vitro rat liver microsomes; conditions: for half-life / microsomal CLint: rat
Protocol: 10 mM stock solutions of the test compounds in DMSO were prepared, diluted with acetonitrile and then with PBS, and vortexed, with the DMSO content controlled at 0.1%. The dilute working solutions (10 µL) were incubated with 65 µL of a liver microsome system (30 µL of 100 mM PBS, 25 µL of 20 mM MgCl2, and 10 µL of 5 mg/mL RLMs) and preheated at 37 °C for 5 min. 25 µL of 4 mM NADPH was added to start a reaction. Samples were taken at different time points (0 min, 5 min, 15 min, 30 min, 60 min, and 120 min), and an acetonitrile solution containing an internal standard was added to stop the reaction. After vortexing and centrifugation, the supernatants were collected and analyzed by LC-MS/MS, and the half-lives and clearance rates were calculated.

[7] = In vivo pharmacokinetic study in rats; conditions: rat
Protocol: Sample collection and preparation: After SPF SD rats (male, 210-230 g, 42-48 days, RILD Liver) in a good growth state were dosed intravenously at 2 mg/kg and orally at 10 mg/kg, blood samples were collected via the orbit at different blood collection time points and transferred to centrifuge tubes containing an anticoagulant; the intravenous blood collection time points were 0.08 hours, 0.25 hours, 0.5 hours, 1 hour, 2 hours, 4 hours, 6 hours, 8 hours, and 24 hours, and the oral blood collection time points were 0.25 hours, 0.5 hours, 1 hour, 2 hours, 4 hours, 6 hours, 8 hours, and 24 hours. The blood samples were immediately centrifuged at 4 °C and 8000 rpm for 10 minutes, and the plasma was collected and stored in an ultra-low-temperature freezer at -80 °C until it was analyzed by LC-MS/MS. Pharmacokinetic data analysis: Pharmacokinetic parameters of the compounds were calculated using pharmacokinetic software in a non-compartmental model. The peak plasma concentration (Cmax) and the time to reach the peak plasma concentration (Tmax) were taken as observation values. Parameters such as the half-life T1/2, the areas under the plasma concentration-time curve AUClast and AUCinf, the apparent volume of distribution Vss, and the clearance rate CL were determined through regression analysis of the linear terminal portion of the logarithmic plasma concentration-time curve and the linear trapezoidal rule.

[8] = tested on: human leukemia cells MV411; test: In vivo pharmacodynamic study in MV411 acute myeloid leukemia xenograft mouse model; design: species or system BABL/c Nude mouse
Protocol: The human leukemia cells MV411 (Cell Bank, Chinese Academy of Sciences) used in this experiment were cultured in an IMDM culture medium supplemented with 10% FBS in an incubator containing CO2 at 37 °C. Before the cells were continuously sub-cultured to the tenth generation, MV411 cells in the logarithmic growth phase were used, and the cell concentration was adjusted to 1 × 10^8 cells/mL with a serum-free culture medium. Each BABL/c Nude mouse (Jiangsu GemPharmatech Co., Ltd., female, 4-6 weeks old, 14-16 g) was inoculated with 100 µL of the cell suspension by subcutaneous injection on the right dorsal side (near the axilla) under sterile conditions. When the mean tumor volume of the tumor-bearing mice reached approximately 100 mm^3, the mice were randomly divided into groups, with the tumor volume in each group being roughly the same. The day of grouping and administration was defined as day 0. The animals in each treatment group were given a compound once daily by oral gavage at 15 mg/kg, 30 mg/kg, or 60 mg/kg. The body weight and tumor volume of the animals were measured every other day.
Experimental indicator: The anti-tumor efficacy of the compounds was evaluated using the relative tumor growth inhibition rate (TGI). Tumor weight TGI (%) = {1 - [(final average tumor weight of experimental group)/(final average tumor weight of control group of tumor-bearing mice without administration)]} × 100%. Tumor volume TGI (%) = [1 - relative tumor volume of experimental group/relative tumor volume of control group of tumor-bearing mice without administration] × 100%.

Row | SMILES | IC50 [1] [nM] | IC50 [2] [nM] | IC50 [3] [nM] | percent GSPT1 degradation at 0.2 µM [4] [%] | IC50 [5] [nM] | half-life [6] [h] | microsomal CLint [6] [µL/min/mg] | further results
1 | O=C1CCC(N2Cc3cc(CNC(=O)C4CNc5ccccc5C4)ccc3C2=O)C(=O)N1 (centres unmarked) [Compound C-1, N-((2-(2,6-Dioxopiperidin-3-yl)-1-oxoisoindolin-5-yl)methyl)-1,2,3,4-tetrahydroquinoline-3-carboxamide] | 10 to 100 | 1 to 10 | 10 to 100 | > 80 | 10 to 100 | – | – | –
2 | O=C1CCC(N2Cc3cc(CNC(=O)C4COc5ccccc5C4)ccc3C2=O)C(=O)N1 (centres unmarked) [Compound B-1, N-((2-(2,6-Dioxopiperidin-3-yl)-1-oxoisoindolin-5-yl)methyl)chromane-3-carboxamide] | 1 to 10 | 10 to 100 | 1 to 10 | > 80 | 1 to 10 | 0.735 | 31.4 | –
3 | O=C1CCC(N2Cc3cc(CNC(=O)C4CCc5ccccc5C4)ccc3C2=O)C(=O)N1 [Compound D-1, N-((2-(2,6-Dioxopiperidin-3-yl)-1-oxoisoindolin-5-yl)methyl)-1,2,3,4-tetrahydronaphthalene-2-carboxamide] | ≥ 1000 | ≥ 1000 | ≥ 1000 | < 25 | ≥ 1000 | – | – | –
4 | O=C1CCC(N2Cc3c(ccc(CNC(=O)C4=Cc5cc(OC(F)(F)F)ccc5OC4)c3F)C2=O)C(=O)N1 (centres unmarked) [Compound A-42, N-((2-(2,6-Dioxopiperidin-3-yl)-4-fluoro-1-oxoisoindolin-5-yl)methyl)-6-(trifluoromethoxy)-2H-chromene-3-carboxamide] | – | 1 to 10 | – | > 80 | – | 3.11 | 7.43 | in vitro rat liver microsome metabolic half-life relative to CC-90009 ([6]; ratio to the clinical drug CC-90009): more than 2 times; AUC(0-inf) ([7]; male, SD, plasma, iv, 2 mg/kg): 17300 ± 1470 ng·h/mL; AUC(0-t) ([7]; male, SD, plasma, iv, 2 mg/kg): 17200 ± 1500 ng·h/mL; C0 ([7]; male, SD, plasma, iv, 2 mg/kg): 32100 ± 1550 ng/mL; Vd ([7]; male, SD, plasma, iv, 2 mg/kg): 0.14 L/kg; clearance ([7]; male, SD, plasma, iv, 2 mg/kg): 1.9 ± 0.1 mL/min/kg; half-life ([7]; male, SD, plasma, iv, 2 mg/kg): 1.37 ± 0.04 h; AUC(0-inf) ([7]; male, SD, plasma, po, 10 mg/kg): 7190 ng·h/mL; AUC(0-t) ([7]; male, SD, plasma, po, 10 mg/kg): 8380 ± 1280 ng·h/mL; Cmax ([7]; male, SD, plasma, po, 10 mg/kg): 2810 ± 1530 ng/mL; Tmax ([7]; male, SD, plasma, po, 10 mg/kg): 0.66 ± 0.28 h; half-life ([7]; male, SD, plasma, po, 10 mg/kg): 1.71 h; F ([7]; PO 10mg/kg): 9.8±1.5%; exposure level relative to CC-90009 ([7]; administered orally): four times; plasma drug exposure level relative to CC-90009 ([7]; intravenous injection): fourteen times; tumor volume TGI ([8]; 60 mg/kg once daily by oral gavage): 100%; weight loss in mice ([8]; once daily by oral gavage): no significant weight loss
